According to article PMC6606794, “Crosstalk of Cellulose and Mannan Perception Pathways Leads to Inhibition of Cellulase Production in Several Filamentous Fungi” (mBio, 2019):

Experiments:
CDT-1 = target: T1, CDT-1 (Neurospora crassa, UniProt Q7SCU1); test: uptake by yeast expressing CDT-1, residual sugar by HPAEC-PAD; assay type: cell-based; details: 100 µM sugar, 30 min, over empty-vector background
T1 construct: pRS316-CDT1 expressed in Saccharomyces cerevisiae D452-2
T1 sequence (Q7SCU1 1-579): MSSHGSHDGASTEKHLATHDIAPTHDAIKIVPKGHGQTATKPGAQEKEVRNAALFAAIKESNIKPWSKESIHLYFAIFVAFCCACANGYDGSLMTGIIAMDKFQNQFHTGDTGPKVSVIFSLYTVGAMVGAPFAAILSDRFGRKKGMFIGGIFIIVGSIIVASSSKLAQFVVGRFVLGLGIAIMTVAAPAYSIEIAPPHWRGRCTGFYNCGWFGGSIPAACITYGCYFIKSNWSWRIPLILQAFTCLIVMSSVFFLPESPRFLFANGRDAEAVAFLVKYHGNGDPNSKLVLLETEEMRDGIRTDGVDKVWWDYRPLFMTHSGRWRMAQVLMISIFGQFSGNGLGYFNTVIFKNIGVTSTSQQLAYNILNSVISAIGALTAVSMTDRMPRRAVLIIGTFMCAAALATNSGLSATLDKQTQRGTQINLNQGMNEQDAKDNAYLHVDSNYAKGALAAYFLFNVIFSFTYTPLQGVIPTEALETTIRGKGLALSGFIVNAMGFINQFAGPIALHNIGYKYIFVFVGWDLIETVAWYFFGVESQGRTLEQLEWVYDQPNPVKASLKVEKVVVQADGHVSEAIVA

CDT-2 = target: T2, CDT-2 (Neurospora crassa, UniProt Q7SD12); test: uptake by yeast expressing CDT-2, residual sugar by HPAEC-PAD; assay type: cell-based; details: 100 µM sugar, 30 min
T2 construct: pRS316-CDT2 expressed in Saccharomyces cerevisiae D452-2
T2 sequence (Q7SD12 1-525): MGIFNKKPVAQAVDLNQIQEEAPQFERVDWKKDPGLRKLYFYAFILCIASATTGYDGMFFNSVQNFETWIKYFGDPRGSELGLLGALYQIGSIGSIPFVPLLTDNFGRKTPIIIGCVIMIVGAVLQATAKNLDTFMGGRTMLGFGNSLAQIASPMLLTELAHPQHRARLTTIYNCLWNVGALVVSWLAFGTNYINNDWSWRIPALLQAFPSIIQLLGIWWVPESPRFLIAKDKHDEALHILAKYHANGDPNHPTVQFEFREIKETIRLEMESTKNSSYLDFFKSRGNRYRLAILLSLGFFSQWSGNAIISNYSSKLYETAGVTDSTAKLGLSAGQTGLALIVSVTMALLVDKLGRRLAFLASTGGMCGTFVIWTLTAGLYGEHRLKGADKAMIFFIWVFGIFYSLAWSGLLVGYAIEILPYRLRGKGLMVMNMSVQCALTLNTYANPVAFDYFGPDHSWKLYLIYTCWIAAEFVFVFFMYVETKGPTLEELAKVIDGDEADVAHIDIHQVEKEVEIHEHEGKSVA

GH2-1 = target: T3, GH2-1 (Neurospora crassa, UniProt Q7SFE1); test: 4-nitrophenol release, absorbance at […] nm; assay type: biochemical; details: 50 mM KP buffer pH 5.5, 37 °C, 1 h, 0.1 µg enzyme, 80 µg substrate
T3 construct: gh2-1 cDNA in pGAPZ-B (EcoRI/XbaI), His-tagged, expressed in Pichia pastoris X-33, purified by IMAC from cell lysate; no predicted signal peptide
T3 sequence (Q7SFE1 1-854): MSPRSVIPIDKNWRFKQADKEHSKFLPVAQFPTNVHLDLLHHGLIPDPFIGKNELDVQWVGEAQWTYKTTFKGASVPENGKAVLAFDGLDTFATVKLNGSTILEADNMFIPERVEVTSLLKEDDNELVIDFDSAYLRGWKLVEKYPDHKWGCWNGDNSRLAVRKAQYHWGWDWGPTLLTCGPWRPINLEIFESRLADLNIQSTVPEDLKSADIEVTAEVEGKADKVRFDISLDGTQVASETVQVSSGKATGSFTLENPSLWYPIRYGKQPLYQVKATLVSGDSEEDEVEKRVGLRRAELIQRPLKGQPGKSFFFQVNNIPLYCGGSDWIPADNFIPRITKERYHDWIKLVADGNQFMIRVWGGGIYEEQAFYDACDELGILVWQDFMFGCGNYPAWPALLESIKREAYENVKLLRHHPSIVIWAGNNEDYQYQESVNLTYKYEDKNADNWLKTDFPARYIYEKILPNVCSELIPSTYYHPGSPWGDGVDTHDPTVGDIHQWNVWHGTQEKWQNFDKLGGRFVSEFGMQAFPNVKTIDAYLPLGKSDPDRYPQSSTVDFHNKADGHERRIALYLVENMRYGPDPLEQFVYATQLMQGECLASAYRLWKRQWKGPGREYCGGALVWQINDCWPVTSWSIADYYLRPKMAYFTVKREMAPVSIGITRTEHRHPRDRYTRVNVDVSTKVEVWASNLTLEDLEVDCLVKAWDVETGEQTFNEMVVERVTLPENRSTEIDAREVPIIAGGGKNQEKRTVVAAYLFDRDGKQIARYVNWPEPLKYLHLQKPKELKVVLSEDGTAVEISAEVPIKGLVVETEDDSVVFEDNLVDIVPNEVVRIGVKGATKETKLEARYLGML

% remaining in supernatant (CDT-1; competes with mannobiose)	% remaining in supernatant (CDT-1; competes with cellobiose)	SMILES	uptake by yeast expressing CDT-2, residual sugar by HPAEC-PAD (CDT-2)	4-nitrophenol release, absorbance at 405 nm (GH2-1)
~ 40%	–	OC[C@H]1O[C@@H](O[C@H]2[C@H](O)[C@@H](O)C(O)O[C@@H]2CO)[C@H](O)[C@@H](O)[C@@H]1O (some centres unmarked) [CB, cellobiose]	not only cellobiose was imported by both S. cerevisiae strains, but also mannobiose	–
–	~ 18%	OC[C@H]1O[C@@H](O[C@H]2[C@H](O)[C@H](O)C(O)O[C@@H]2CO)[C@@H](O)[C@@H](O)[C@@H]1O (some centres unmarked) [MB, mannobiose]	not only cellobiose was imported by both S. cerevisiae strains, but also mannobiose	–
–	–	O=[N+]([O-])c1ccc(O[C@@H]2O[C@H](CO)[C@@H](O)[C@H](O)[C@@H]2O)cc1 [ρNP-β-Man, 4-nitrophenyl-β-D-mannopyranoside]	–	The purified enzyme showed strong activity on ρNP-β-D-mannopyranoside with high specificity
